# According to US11420947B2, “(S)-n-hydroxy-2-(2-(4-methoxyphenyl)butanamido)thiazole-5-carboxamide and pharmaceutically acceptable salts thereof” (TRANSLATIONAL DRUG DEVELOPMENT, LLC, priority 2018, dated 2022):
# Legend:
# HDAC9 = target: T1, HDAC9 (Homo sapiens, UniProt Q9UKV0); test: Inhibition of HDAC enzymes, 12-point concentration-response; assay type: biochemical
# T1 construct: purchased BPS 50009
# Method: (§1) Compounds were tested in a 12-point concentration-response format against 11 HDAC enzymes as outlined in Table 2A. Test compounds were diluted in 100% DMSO using 3-fold dilution steps. The final compound concentration in the assay ranged from 100 μM to 0.565 nM or as requested. Compounds were tested in a single well for each dilution, and the final concentration of DMSO in all assays was kept at 1%. Reference compounds were tested in an identical manner.
# HDAC5 = target: T2, HDAC5 (Homo sapiens, UniProt Q9UQL6); test: as above; assay type: biochemical
# T2 construct: purchased BPS 50045
# T2 sequence (Q9UQL6 whole entry): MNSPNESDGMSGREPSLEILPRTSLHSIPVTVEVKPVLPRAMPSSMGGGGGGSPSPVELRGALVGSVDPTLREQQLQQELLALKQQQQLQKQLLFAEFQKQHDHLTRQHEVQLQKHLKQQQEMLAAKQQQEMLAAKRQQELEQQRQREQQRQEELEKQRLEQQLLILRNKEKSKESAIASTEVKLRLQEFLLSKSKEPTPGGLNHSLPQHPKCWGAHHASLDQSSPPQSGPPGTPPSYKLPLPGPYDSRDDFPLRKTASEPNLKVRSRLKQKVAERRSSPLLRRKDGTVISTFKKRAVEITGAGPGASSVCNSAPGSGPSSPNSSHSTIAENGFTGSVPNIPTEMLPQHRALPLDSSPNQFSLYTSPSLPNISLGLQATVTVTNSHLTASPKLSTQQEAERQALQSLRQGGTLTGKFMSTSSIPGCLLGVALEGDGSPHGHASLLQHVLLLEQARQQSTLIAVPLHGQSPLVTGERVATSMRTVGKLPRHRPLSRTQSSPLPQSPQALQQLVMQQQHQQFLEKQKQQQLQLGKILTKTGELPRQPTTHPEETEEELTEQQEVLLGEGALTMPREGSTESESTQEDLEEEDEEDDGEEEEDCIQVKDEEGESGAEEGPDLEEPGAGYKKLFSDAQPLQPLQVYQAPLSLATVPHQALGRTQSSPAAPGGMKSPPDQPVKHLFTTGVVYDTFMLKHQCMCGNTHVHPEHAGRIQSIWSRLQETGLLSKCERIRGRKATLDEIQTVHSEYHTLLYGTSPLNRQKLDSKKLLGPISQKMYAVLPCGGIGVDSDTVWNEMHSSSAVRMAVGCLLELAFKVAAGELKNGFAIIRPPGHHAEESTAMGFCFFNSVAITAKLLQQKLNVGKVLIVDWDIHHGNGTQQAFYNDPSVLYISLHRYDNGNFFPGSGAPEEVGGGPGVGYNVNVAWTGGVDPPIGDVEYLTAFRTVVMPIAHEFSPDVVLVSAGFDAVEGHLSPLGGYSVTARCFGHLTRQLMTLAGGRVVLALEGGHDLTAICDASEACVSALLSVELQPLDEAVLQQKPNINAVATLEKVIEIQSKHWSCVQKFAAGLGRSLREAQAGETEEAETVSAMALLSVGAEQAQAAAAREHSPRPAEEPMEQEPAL
# Method: as §1
# HDAC11 = target: T3, HDAC11 (Homo sapiens, UniProt Q96DB2); test: as above; assay type: biochemical
# T3 construct: made in house
# T3 sequence (Q96DB2 whole entry, species assumed): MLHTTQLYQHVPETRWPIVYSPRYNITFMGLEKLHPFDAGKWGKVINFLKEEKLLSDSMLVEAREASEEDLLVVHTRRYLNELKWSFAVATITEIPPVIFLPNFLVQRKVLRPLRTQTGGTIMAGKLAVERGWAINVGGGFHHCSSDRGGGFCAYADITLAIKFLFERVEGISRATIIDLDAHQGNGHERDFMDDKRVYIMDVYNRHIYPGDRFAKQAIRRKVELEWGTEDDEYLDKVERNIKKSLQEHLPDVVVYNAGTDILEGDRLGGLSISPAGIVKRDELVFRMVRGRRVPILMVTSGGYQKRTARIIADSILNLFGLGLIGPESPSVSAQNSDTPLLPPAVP
# Method: as §1
# HDAC1 = target: T4, HDAC1 (Homo sapiens, UniProt Q13547); test: as above; assay type: biochemical
# T4 construct: purchased BPS 50051
# T4 sequence (Q13547 whole entry): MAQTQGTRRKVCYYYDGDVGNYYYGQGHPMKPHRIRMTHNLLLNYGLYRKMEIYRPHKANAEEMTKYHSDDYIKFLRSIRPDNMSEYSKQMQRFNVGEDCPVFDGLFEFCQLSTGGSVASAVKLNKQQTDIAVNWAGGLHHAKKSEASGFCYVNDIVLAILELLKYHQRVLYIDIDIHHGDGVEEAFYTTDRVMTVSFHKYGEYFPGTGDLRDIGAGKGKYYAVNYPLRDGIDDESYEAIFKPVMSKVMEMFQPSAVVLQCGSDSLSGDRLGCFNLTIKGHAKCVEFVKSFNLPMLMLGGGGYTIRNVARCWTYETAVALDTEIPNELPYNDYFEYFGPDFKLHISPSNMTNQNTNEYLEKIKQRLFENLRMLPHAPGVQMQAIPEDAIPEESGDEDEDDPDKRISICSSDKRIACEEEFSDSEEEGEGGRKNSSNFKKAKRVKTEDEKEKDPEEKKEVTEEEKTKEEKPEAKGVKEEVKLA
# Method: as §1
# H23 = test: CellTiter-Glo cell viability assay; assay type: cell-based; conditions: for IC50: Homo sapiens, NCI-H23, H23, LUNG, NSCLC, 72 hours
# How it was run: (§2)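 ATP-based luminescence read-out after 72 h compound exposure. Seeding 2.5×10^3–5×10^3 cells/well, 24 h recovery before dosing. % growth = test/vehicle ×100; IC50 from four-parameter fit.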
# BT-20 = test: CellTiter-Glo cell viability assay; assay type: cell-based; conditions: for IC50: Homo sapiens, BT-20, BREAST, Carcinoma, 72 hours
# How it was run: as §2
# KMS-34 = test: CellTiter-Glo cell viability assay; assay type: cell-based; conditions: for IC50: KMS-34, HEMATOPIETIC, MM, 72 hours
# How it was run: as §2
# RXF-393 = test: CellTiter-Glo cell viability assay; assay type: cell-based; conditions: for IC50: Homo sapiens, RXF-393, RENAL, RCC, 72 hours
# How it was run: as §2
# NCI-H1963 = test: CellTiter-Glo cell viability assay; assay type: cell-based; conditions: for IC50: Homo sapiens, NCI-H1963, LUNG, Carcinoma, 72 hours
# How it was run: as §2
# A204 = test: CellTiter-Glo cell viability assay; assay type: cell-based; conditions: for IC50: Homo sapiens, A204, RHABDOMYOSARCOMA, Muscle, 72 hours
# How it was run: as §2
# Ishikawa = test: CellTiter-Glo cell viability assay; assay type: cell-based; conditions: for IC50: Homo sapiens, Ishikawa, ENDOMETRIAL, 72 hours
# How it was run: as §2
# OAW28 = test: CellTiter-Glo cell viability assay; assay type: cell-based; conditions: for IC50: Homo sapiens, OAW-28, OAW28, OVARIAN, ovarian cystadenocarcinoma, 72 hours
# How it was run: as §2
# ASPC-1 = test: CellTiter-Glo cell viability assay; assay type: cell-based; conditions: for IC50: Homo sapiens, ASPC1, ASPC-1, PANCREAS, Pancreatic, 72 hours
# How it was run: as §2
# K562 = test: CellTiter-Glo cell viability assay; assay type: cell-based; conditions: for IC50: Homo sapiens, K562, HEMATOPIETIC, CML, 72 hours
# How it was run: as §2
# Hec-1A = test: CellTiter-Glo cell viability assay; assay type: cell-based; conditions: for IC50: Homo sapiens, Hec-1A, ENDOMETRIAL, 72 hours
# How it was run: as §2
# NCI-H226 = test: CellTiter-Glo cell viability assay; assay type: cell-based; conditions: for IC50: Homo sapiens, NCI-H226, LUNG, Mesothelioma, 72 hours
# How it was run: as §2
# Raji = test: CellTiter-Glo cell viability assay; assay type: cell-based; conditions: for IC50: Homo sapiens, Raji, HEMATOPIETIC, Burkitt’s, 72 hours
# How it was run: as §2
# G401 = test: CellTiter-Glo cell viability assay; assay type: cell-based; conditions: for IC50: Homo sapiens, G-401, G401, RENAL, Rhabdoid Tumor, 72 hours
# How it was run: as §2
# RKO = test: CellTiter-Glo cell viability assay; assay type: cell-based; conditions: for IC50: Homo sapiens, RKO, COLON, CRC, 72 hours
# How it was run: as §2
# H1975 = test: CellTiter-Glo cell viability assay; assay type: cell-based; conditions: for IC50: Homo sapiens, NCI-H1975, H1975, LUNG, NSCLC, 72 hours
# How it was run: as §2
# H358 = test: CellTiter-Glo cell viability assay; assay type: cell-based; conditions: for IC50: Homo sapiens, NCI-H358, H358, LUNG, NSCLC, 72 hours
# How it was run: as §2
# KG-1 = test: CellTiter-Glo cell viability assay; assay type: cell-based; conditions: for IC50: Homo sapiens, KG-1, HEMATOPIETIC, AML, 72 hours
# How it was run: as §2
# DOHH-2 = test: CellTiter-Glo cell viability assay; assay type: cell-based; conditions: for IC50: Homo sapiens, DOHH-2, HEMATOPIETIC, Lymphoma, 72 hours
# How it was run: as §2
# J1M-1 = test: CellTiter-Glo cell viability assay; assay type: cell-based; conditions: for IC50: J1M-1, HEMATOPIETIC, MM, 72 hours
# How it was run: as §2
# T1 sequence (Q9UKV0 1-1066 isoform Q9UKV0-5): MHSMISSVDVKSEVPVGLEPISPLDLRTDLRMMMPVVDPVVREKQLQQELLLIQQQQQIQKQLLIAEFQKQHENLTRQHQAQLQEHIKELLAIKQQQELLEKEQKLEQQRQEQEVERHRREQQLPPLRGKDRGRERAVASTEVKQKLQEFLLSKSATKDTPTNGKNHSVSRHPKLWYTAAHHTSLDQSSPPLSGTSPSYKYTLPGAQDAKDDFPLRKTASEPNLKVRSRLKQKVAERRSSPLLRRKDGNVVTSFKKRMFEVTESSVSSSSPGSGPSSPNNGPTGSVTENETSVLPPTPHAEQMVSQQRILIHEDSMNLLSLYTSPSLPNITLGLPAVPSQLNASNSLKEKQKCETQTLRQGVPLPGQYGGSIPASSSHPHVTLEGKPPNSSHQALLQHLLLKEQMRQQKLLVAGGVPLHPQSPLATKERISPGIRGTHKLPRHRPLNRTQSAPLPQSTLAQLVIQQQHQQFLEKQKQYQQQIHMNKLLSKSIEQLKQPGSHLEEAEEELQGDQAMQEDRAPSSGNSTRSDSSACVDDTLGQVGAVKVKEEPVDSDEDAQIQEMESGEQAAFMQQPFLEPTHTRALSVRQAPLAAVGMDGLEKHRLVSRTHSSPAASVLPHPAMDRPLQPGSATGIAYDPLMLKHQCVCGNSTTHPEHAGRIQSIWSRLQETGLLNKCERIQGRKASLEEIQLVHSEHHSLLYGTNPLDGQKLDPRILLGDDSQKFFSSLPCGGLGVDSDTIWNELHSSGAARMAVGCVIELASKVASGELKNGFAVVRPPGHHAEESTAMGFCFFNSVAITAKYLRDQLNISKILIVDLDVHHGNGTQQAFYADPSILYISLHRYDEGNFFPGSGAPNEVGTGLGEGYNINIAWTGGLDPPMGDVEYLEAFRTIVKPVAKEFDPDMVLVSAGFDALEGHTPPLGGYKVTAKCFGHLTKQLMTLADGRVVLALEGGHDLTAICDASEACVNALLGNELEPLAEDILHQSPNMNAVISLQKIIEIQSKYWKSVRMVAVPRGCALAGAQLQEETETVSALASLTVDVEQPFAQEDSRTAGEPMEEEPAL
structure (smiles),measurement,setting,value
"CC[C@H](C(=O)Nc1ncc(C(=O)NO)s1)c1ccc(OC)cc1 [#1a, (S)—N-hydroxy-2-(2-(4-methoxyphenyl)butanamido)thiazole-5-carboxamide]",Fold (1b/1a),"HDAC9; ratio of IC50, HDAC9",1.1
same,Fold (1b/1a),"HDAC5; ratio of IC50, HDAC5",1.4
same,Fold (1b/1a),"HDAC11; ratio of IC50, HDAC11",0.73
same,Fold (1b/1a),"HDAC1; ratio of IC50, HDAC1",7.8
same,IC50,H23,47 nM
same,#1/#1a,"H23; ratio of IC50, H23",1.62
same,#1b/#1a,"H23; ratio of IC50, H23",9.02
same,IC50,BT-20,93 nM
same,#1/#1a,"BT-20; ratio of IC50, BT-20",2.54
same,#1b/#1a,"BT-20; ratio of IC50, BT-20",8.16
same,IC50,KMS-34,13 nM
same,#1/#1a,"KMS-34; ratio of IC50, KMS-34",1.15
same,#1b/#1a,"KMS-34; ratio of IC50, KMS-34",5.15
same,IC50,RXF-393,113 nM
same,#1/#1a,"RXF-393; ratio of IC50, RXF-393",3.52
same,#1b/#1a,"RXF-393; ratio of IC50, RXF-393",7.82
same,IC50,NCI-H1963,26 nM
same,#1/#1a,"NCI-H1963; ratio of IC50, NCI-H1963",7.54
same,#1b/#1a,"NCI-H1963; ratio of IC50, NCI-H1963",15.65
same,IC50,A204,54 nM
same,#1/#1a,"A204; ratio of IC50, A204",0.61
same,#1b/#1a,"A204; ratio of IC50, A204",3.15
same,IC50,Ishikawa,28 nM
same,#1/#1a,"Ishikawa; ratio of IC50, Ishikawa",1.71
same,#1b/#1a,"Ishikawa; ratio of IC50, Ishikawa",6.82
same,IC50,OAW28,85 nM
same,#1/#1a,"OAW28; ratio of IC50, OAW28",3.39
same,#1b/#1a,"OAW28; ratio of IC50, OAW28",6.61
same,IC50,ASPC-1,112 nM
same,#1/#1a,"ASPC-1; ratio of IC50, ASPC-1",1.41
same,#1b/#1a,"ASPC-1; ratio of IC50, ASPC-1",7.26
same,IC50,K562,78 nM
same,#1/#1a,"K562; ratio of IC50, K562",1.86
same,#1b/#1a,"K562; ratio of IC50, K562",5.1
same,IC50,Hec-1A,37 nM
same,#1/#1a,"Hec-1A; ratio of IC50, Hec-1A",1.51
same,#1b/#1a,"Hec-1A; ratio of IC50, Hec-1A",8.35
same,IC50,NCI-H226,200 nM
same,#1/#1a,"NCI-H226; ratio of IC50, NCI-H226",2.4
same,#1b/#1a,"NCI-H226; ratio of IC50, NCI-H226",8.44
same,IC50,Raji,36 nM
same,#1/#1a,"Raji; ratio of IC50, Raji",2.92
same,#1b/#1a,"Raji; ratio of IC50, Raji",7.83
same,IC50,G401,50 nM
same,#1/#1a,"G401; ratio of IC50, G401",1.82
same,#1b/#1a,"G401; ratio of IC50, G401",8.14
same,IC50,RKO,145 nM
same,#1/#1a,"RKO; ratio of IC50, RKO",1.84
same,#1b/#1a,"RKO; ratio of IC50, RKO",9.37
same,IC50,H1975,40 nM
same,#1/#1a,"H1975; ratio of IC50, H1975",2.85
same,#1b/#1a,"H1975; ratio of IC50, H1975",9.95
same,IC50,H358,69 nM
same,#1/#1a,"H358; ratio of IC50, H358",2.29
same,#1b/#1a,"H358; ratio of IC50, H358",8.09
same,IC50,KG-1,12 nM
same,#1/#1a,"KG-1; ratio of IC50, KG-1",1.83
same,#1b/#1a,"KG-1; ratio of IC50, KG-1",12.33
same,IC50,DOHH-2,17 nM
same,#1/#1a,"DOHH-2; ratio of IC50, DOHH-2",0.94
same,#1b/#1a,"DOHH-2; ratio of IC50, DOHH-2",7.94
same,IC50,J1M-1,26 nM
same,#1/#1a,"J1M-1; ratio of IC50, J1M-1",1.81
same,#1b/#1a,"J1M-1; ratio of IC50, J1M-1",8.42
"CC[C@@H](C(=O)Nc1ncc(C(=O)NO)s1)c1ccc(OC)cc1 [#1b, (R)—N-hydroxy-2-(2-(4-methoxyphenyl)butanamido)thiazole-5-carboxamide]",IC50,HDAC9; HDAC9,210 nM
same,IC50,HDAC5; HDAC5,100 nM
same,IC50,HDAC11; HDAC11,4220 nM
same,IC50,HDAC1; HDAC1,7.8 nM
same,IC50,H23,424 nM
same,IC50,BT-20,759 nM
same,IC50,KMS-34,67 nM
same,IC50,RXF-393,884 nM
same,IC50,NCI-H1963,407 nM
same,IC50,A204,170 nM
same,IC50,Ishikawa,191 nM
same,IC50,OAW28,562 nM
same,IC50,ASPC-1,813 nM
same,IC50,K562,398 nM
same,IC50,Hec-1A,309 nM
same,IC50,NCI-H226,1690 nM
same,IC50,Raji,282 nM
same,IC50,G401,407 nM
same,IC50,RKO,1360 nM
same,IC50,H1975,398 nM
same,IC50,H358,558 nM
same,IC50,KG-1,148 nM
same,IC50,DOHH-2,135 nM
same,IC50,J1M-1,219 nM
"CCC(C(=O)Nc1ncc(C(=O)NO)s1)c1ccc(OC)cc1 (racemic) [#1, N-hydroxy-2-(2-(4-methoxyphenyl)butanamido)thiazole-5-carboxamide]",IC50,H23,76 nM
same,IC50,BT-20,236 nM
same,IC50,KMS-34,15 nM
same,IC50,RXF-393,398 nM
same,IC50,NCI-H1963,196 nM
same,IC50,A204,33 nM
same,IC50,Ishikawa,48 nM
same,IC50,OAW28,288 nM
same,IC50,ASPC-1,158 nM
same,IC50,K562,145 nM
same,IC50,Hec-1A,56 nM
same,IC50,NCI-H226,479 nM
same,IC50,Raji,105 nM
same,IC50,G401,91 nM
same,IC50,RKO,267 nM
same,IC50,H1975,114 nM
same,IC50,H358,158 nM
same,IC50,KG-1,22 nM
same,IC50,DOHH-2,16 nM
same,IC50,J1M-1,47 nM
